Assay results reported in US9255080B2, “Quinazolinedione derivatives as PARP inhibitors” (Janssen Pharmaceutica NV, priority 2004, dated 2016).
pIC50: −log10 of the molar value. Where two headings read alike, the source gives them in different places.

Columns and labels:
TANK-2 enzyme = molecular target: T1, TANK-2 enzyme (Homo sapiens, UniProt Q9H2K2); experiment: In vitro scintillation proximity assay (SPA) for TANK-2 inhibitory activity; assay type: biochemical; settings: for IC50: auto-poly(ADP-ribosyl)ation, [3H]-NAD+, 96-well results if available, otherwise 384-well, read-out: in vitro SPA assay TANK-2 pIC50 (converted)
T1 construct: made in house
T1 sequence (Q9H2K2 1-1166): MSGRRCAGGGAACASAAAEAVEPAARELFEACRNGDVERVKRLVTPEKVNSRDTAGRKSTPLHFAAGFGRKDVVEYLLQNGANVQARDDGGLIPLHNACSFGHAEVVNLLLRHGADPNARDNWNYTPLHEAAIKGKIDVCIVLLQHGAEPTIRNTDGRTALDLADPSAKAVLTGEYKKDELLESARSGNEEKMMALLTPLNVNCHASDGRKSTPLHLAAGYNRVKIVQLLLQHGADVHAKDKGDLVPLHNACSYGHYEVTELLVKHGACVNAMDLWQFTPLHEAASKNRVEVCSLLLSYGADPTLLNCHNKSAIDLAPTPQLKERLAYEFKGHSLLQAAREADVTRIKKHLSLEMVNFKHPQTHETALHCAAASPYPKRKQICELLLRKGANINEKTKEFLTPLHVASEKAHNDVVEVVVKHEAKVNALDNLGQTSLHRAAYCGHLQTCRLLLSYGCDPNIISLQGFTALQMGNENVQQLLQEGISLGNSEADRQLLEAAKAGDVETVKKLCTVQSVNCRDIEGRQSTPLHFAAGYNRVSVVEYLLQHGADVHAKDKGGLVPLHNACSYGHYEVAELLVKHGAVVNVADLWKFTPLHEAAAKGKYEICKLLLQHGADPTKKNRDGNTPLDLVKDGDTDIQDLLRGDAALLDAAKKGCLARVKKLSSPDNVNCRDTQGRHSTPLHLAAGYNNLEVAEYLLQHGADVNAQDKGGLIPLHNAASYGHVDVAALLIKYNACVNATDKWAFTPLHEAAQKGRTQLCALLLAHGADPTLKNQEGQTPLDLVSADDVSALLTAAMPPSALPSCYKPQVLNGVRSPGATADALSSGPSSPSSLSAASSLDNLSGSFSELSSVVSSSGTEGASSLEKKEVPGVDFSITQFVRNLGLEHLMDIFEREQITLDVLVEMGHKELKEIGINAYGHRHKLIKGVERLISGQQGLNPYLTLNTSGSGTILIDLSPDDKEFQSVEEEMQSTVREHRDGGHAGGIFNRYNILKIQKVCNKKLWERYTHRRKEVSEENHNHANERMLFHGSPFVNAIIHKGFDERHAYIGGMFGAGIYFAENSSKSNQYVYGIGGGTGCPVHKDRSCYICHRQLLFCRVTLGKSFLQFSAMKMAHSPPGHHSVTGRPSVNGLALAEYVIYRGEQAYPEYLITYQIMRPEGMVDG
Method: In Vitro Scintillation Proximity Assay (SPA) for TANK-2 Inhibitory Activity
Compounds of the present invention were tested in an in vitro assay based on SPA technology with Ni Flash plates (96 or 384 well).
In principle, the assay relies upon SPA technology for the detection of auto-poly(ADP-ribosyl)ation of TANK-2 protein using [^3H]-nicotinamide adenine dinucleotide ([^3H]-NAD^+) as ADP-ribosyl donor.
A stock solution of [^3H]-NAD^+/NAD was made by adding 64.6 μl of [^3H]-NAD^+ (0.1 mCi/ml, supplier: Perkin Elmer) and 46.7 μl NAD-stock (10.7 mM, stored at −20° C., supplier Roche) to 1888.7 μl assay buffer (60 mM Tris/HCl, pH 7.4; 0.9 mM DTT; 6 mM MgCl2). The TANK-2 enzyme was produced as described in EP1238063. 60 μl of assay buffer, together with 1 μl of compound in DMSO, 20 μl of [^3H]-NAD^+/NAD and 20 μl of TANK-2 enzyme (final concentration 6 μg/ml) was added per well into a 96-well Ni-coated flash plate (Perkin Elmer). After incubation of the mixture for 120 min. at room temperature, the reaction was terminated by adding 60 μl of stopsolution (42.6 mg NAD in 6 ml H2O). The plates were covered with a plate sealer and placed in a TopCountNXT™ (Packard) for scintillation counting. Values were expressed as counts per minute (cpm). For each experiment, controls (containing TANK-2 enzyme and DMSO without compound), a blank incubation (containing DMSO but no TANK-2 enzyme or compound) and samples (containing TANK-2 enzyme and compound dissolved in DMSO) were run in parallel. All compounds tested were dissolved and eventually further diluted in DMSO. In first instance, compounds were tested at a concentration of 10^−5M. […] In each test, the blank value was subtracted from both the control and the sample values. The control sample represented maximal TANK-2 enzyme activity. For each sample, the amount of cpm was expressed as a percentage of the mean cpm value of the controls. When appropriate, IC50-values (concentration of the drug, needed to reduce the TANK-2 enzyme activity to 50% of the control) were computed using linear interpolation between the experimental points just above and below the 50% level. Herein the effects of test compounds are expressed as pIC50 (the negative log value of the IC50-value). As reference compounds, 3-aminobenzamide and 4-amino-1,8-naphthalimide were included to validate the SPA assay. Herein the assay was described using 96-well plates. In the assay using 384-well plates the same final concentrations were used and volumes were adapted.

Row | IC50 (TANK-2 enzyme) | Structure (SMILES) | melting point | pIC50 (TANK-2 enzyme)
1 | > 10 µM | O=c1[nH]c(=O)n(C2CCN(CC(O)C3CCc4ccccc4O3)CC2)c2ccccc12 (stereo in doubt) [Compound 9, 1-[1-[(2S)-2-[(2R)-3,4-dihydro-2H-1-benzopyran-2-yl]-2-hydroxyethyl]-4-piperidinyl]-2,4(1H,3H)-quinazolinedione] | – | –
2 | > 10 µM | O=C(CCCN1CCC(n2c(=O)[nH]c(=O)c3ccccc32)CC1)c1ccc(F)cc1 [Compound 2] | 195 °C | –
3 | – | O=c1[nH]c(=O)n(CCCN2CCC(c3c[nH]c4ccccc34)CC2)c2ccccc12 [Compound 3] | 216.8 °C | < 5.00
4 | 7.57 µM | O=c1[nH]c(=O)n(C2CCN(CCCn3c(=O)[nH]c4ccccc43)CC2)c2ccccc12 [Compound 5] | – | –
5 | 7.19 µM | O=C(c1ccc(F)cc1)C1CCN(CCn2c(=O)[nH]c(=O)c3ccccc32)CC1 [Compound 10, 1-[2-[4-(4-fluorobenzoyl)-1-piperidinyl]ethyl]-2,4-(1H,3H)-quinazolinedione] | – | –
6 | > 10 µM | O=C(c1ccc(F)cc1)C1CCN(CCCn2c(=O)[nH]c(=O)c3ccccc32)CC1 [Compound 11, 1-[3-[4-(4-fluorobenzoyl)-1-piperidinyl]propyl]-2,4-(1H,3H)-quinazolinedione] | – | –

Row | Structure (SMILES) | IC50 (TANK-2 enzyme) | melting point | pIC50 (TANK-2 enzyme)
7 | O=c1[nH]c(=O)n(C2CCNCC2)c2ccccc12 [Compound 1] | > 10 µM | 253.7 °C | –
8 | O=c1[nH]c(=O)n(CCN2CCC(O)(c3ccc(Cl)cc3)CC2)c2ccccc12 [Compound 6] | 1.38 µM | – | –
9 | O=c1[nH]c(=O)n(CCCN2CCC(O)(c3ccc(Cl)cc3)CC2)c2ccccc12 [Compound 7] | > 10 µM | – | –
